Broadly, the IC50 is the point on the concentration scale where inhibition reaches its midpoint.

System in the first series: not given
Experiment: not given
Conditions: non-enzymatic transformation to inactive metabolite 6-keto-prostaglandin-F1alpha; cited from earlier work.
As to `CCCCC[C@H](O)/C=C/[C@@H]1[C@H]2C/C(=C/CCCC(=O)O)O[C@H]2C[C@H]1O` [PGI2], the half-life result was “approx. 3 minutes”.

The target in a further series is T1, Prostacyclin receptors (IP receptors) of human thrombocyte membranes (Homo sapiens, UniProt P43119).
T1 construct: Thrombocyte membranes are obtained by centrifuging 50 ml of human blood
T1 sequence (P43119 whole entry): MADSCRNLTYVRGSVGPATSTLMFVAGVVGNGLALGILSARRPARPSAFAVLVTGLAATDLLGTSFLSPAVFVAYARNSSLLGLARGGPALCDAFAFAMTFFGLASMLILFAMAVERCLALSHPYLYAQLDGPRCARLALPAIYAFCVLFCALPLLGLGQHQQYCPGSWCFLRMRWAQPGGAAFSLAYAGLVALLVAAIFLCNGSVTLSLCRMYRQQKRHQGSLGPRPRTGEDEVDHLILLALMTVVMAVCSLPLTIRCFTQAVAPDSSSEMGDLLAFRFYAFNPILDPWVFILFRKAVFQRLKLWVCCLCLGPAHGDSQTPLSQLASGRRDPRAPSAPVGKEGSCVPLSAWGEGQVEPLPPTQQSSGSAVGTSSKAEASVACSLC
As to the kind of experiment: Binding to prostacyclin receptors (IP receptors) of human thrombocyte membranes, 3H-Iloprost displacement. Conditions: 3 nM 3H-Iloprost, 60 min, room temperature. As to the method: B-1. Studies of Binding to Prostacyclin Receptors (IP Receptors) of Human Thrombocyte Membranes
Thrombocyte membranes are obtained by centrifuging 50 ml of human blood (Buffy coats with CDP Stabilizer, from Maco Pharma, Langen) for 20 min at 160×g. Remove the supernatant (platelet-rich plasma, PRP) and then centrifuge again at 2000×g for 10 min at room temperature. Resuspend the sediment in 50 mM tris(hydroxymethyl)aminomethane, which has been adjusted to a pH of 7.4 with 1 N hydrochloric acid, and store at −20° C. overnight. On the next day, centrifuge the suspension at 80 000×g and 4° C. for 30 min. Discard the supernatant. Resuspend the sediment in 50 mM tris(hydroxymethyl)aminomethane/hydrochloric acid, 0.25 mM ethylene diamine tetraacetic acid (EDTA), pH 7.4, and then centrifuge once again at 80 000×g and 4° C. for 30 min. Take up the membrane sediment in binding buffer (50 mM tris(hydroxymethyl)-aminomethane/hydrochloric acid, 5 mM magnesium chloride, pH 7.4) and store at −70° C. until the binding test.
For the binding test, incubate 3 nM ^3H-Iloprost (592 GBq/mmol, from AmershamBioscience) for 60 min with 300-1000 μg/ml of human thrombocyte membranes per charge (max. 0.2 ml) in the presence of the test substances at room temperature. After stopping, add cold binding buffer to the membranes and wash with 0.1% bovine serum albumin. After adding Ultima Gold Scintillator, quantify the radioactivity bound to the membranes using a scintillation counter. The nonspecific binding is defined as radioactivity in the presence of 1 μM Iloprost (from Cayman Chemical, Ann Arbor) and is as a rule <25% of the bound total radioactivity. The binding data (IC50 values) are determined using the program GraphPad Prism Version 3.02.
Consider `CCc1ccc(-c2c(-c3ccccc3)oc3nccc(NCC(C)(C)COCCC(=O)O)c23)cc1` [Example 21, 3-(3-{[3-(4-Ethylphenyl)-2-phenylfuro[2,3-b]pyridin-4-yl]amino}-2,2-dimethylpropoxy)-propanoic acid], for which the concentration for half-maximal inhibition (IC50) is 35 nM.

Regarding `CCc1ccc(-c2c(-c3ccccc3)oc3nccc(O[C@H](C)CCCCC(=O)O)c23)cc1` [Example 28, (6R)-6-{[3-(4-ethylphenyl)-2-phenylfuro[2,3-b]pyridin-4-yl]oxy}heptanoic acid], the IC50 was 39 nM.

`COc1ccc(-c2c(-c3ccccc3)oc3cccc(OCCCCCC(=O)O)c23)cc1` [Example 12, 6-{[3-(4-Methoxyphenyl)-2-phenyl-1-benzofuran-4-yl]oxy}hexanoic acid]: the concentration for half-maximal inhibition (IC50) came out at 984 nM.

In turn, `CCc1ccc(-c2c(-c3ccccc3)oc3nccc(OCCOCCC(=O)O)c23)cc1` [Example 29] showed an IC50 of 1700 nM. Against the preceding compound, the IC50 is about 1.7-fold higher.

Turning to `COc1ccc(-c2c(-c3ccccc3)[nH]c3ncnc(O[C@H](C)CCCCC(=O)O)c23)cc1` [Example 5, (6R)-6-{[5-(4-Methoxyphenyl)-6-phenyl-7H-pyrrolo[2,3-d]pyrimidin-4-yl]oxy}heptanoic acid], the concentration for half-maximal inhibition (IC50) is 39 nM. This IC50 lies about 44-fold lower than the previous one.

Take `COc1ccc(-c2c(-c3ccccc3)oc3ccnc(NCC(C)(C)COCC(=O)O)c23)cc1` [Example 19, (3-{[3-(4-Methoxyphenyl)-2-phenylfuro[3,2-c]pyridin-4-yl]amino}-2,2-dimethylpropoxy)acetic acid]: the concentration for half-maximal inhibition (IC50) worked out at 98 nM.

Compound `CCc1ccc(-c2c(-c3ccccc3)sc3ncnc(O[C@H](C)CCCCC(=O)O)c23)cc1` [Example 9, (6R)-6-{[5-(4-ethylphenyl)-6-phenylthieno[2,3-d]pyrimidin-4-yl]oxy}heptanoic acid] returned a half-maximal inhibitory concentration (IC50) of 208 nM.

The record behind these values is patent US20100261736A1, “SUBSTITUTED BICYCLIC HETEROARYL COMPOUNDS FOR THE TREATMENT OF CARDIOVASCULAR DISEASE” (priority 2007, published 2010).
